Source: the supplement of paper PMC10627819

Key:
B. subtilis 168 [1] = test: fitness (endpoint OD595 vs no drug) (fraction); higher = more growth
Procedure, shortened: (§1)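 With the first reading as background, OD595 was measured every 30 min for 14 h in 384-well plates kept at 37 °C and inoculated at OD595 0.01. TSB, LB Lennox or CY was the medium. Fitness is the optical density at the transition into stationary phase divided by the robust mean of no-drug control wells, with a cap of 1.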

S. aureus Newman [2] = test: as above
Procedure, shortened: as §1

S. pneumoniae D39V [3] = test: as above
Procedure, shortened: as §1

B. subtilis 168 [4] = test: Bliss interaction score (quartile over a dose matrix) (fitness difference); higher = more antagonism (negative = synergy)
Procedure, shortened: (§2)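 Growth was read as OD595 when cultures entered stationary phase, and each value was divided by the plate's robust no-drug mean and capped at 1. This normalised ratio is the fitness value, and fitness for each single drug came from the combination data. The Bliss score subtracts the expected fitness, taken as the product, from the observed fitness and is given as quartiles across technical, biological and donor/recipient replicates.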

S. aureus DSM 20231 = test: as above
Procedure, shortened: as §2

S. aureus Newman [5] = test: as above
Procedure, shortened: as §2

S. pneumoniae D39V [6] = test: as above
Procedure, shortened: as §2
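For Bliss interaction score (quartile over a dose matrix) in this document: first quartile when negative (synergy) and third quartile when positive (antagonism).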
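For fitness (endpoint OD595 vs no drug) in this document: OD595 on entry to stationary phase over no-drug wells; at most 1.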

O=C(O)c1cn(C2CC2)c2cc(N3CCNCC3)c(F)cc2c1=O [Ciprofloxacin] + CN1C2=CC=CC=C2N=C3C1=CC=CC3=O [Pyocyanin]
Details | fitness
B. subtilis 168 [1], first compound 0.0098 µg/mL, partner 1.25 µg/mL | 0.911
B. subtilis 168 [1], first compound 0.0098 µg/mL, partner 2.5 µg/mL | 0.809
B. subtilis 168 [1], first compound 0.0098 µg/mL, partner 5 µg/mL | 0.814
B. subtilis 168 [1], first compound 0.0195 µg/mL, partner 2.5 µg/mL | 0.703
B. subtilis 168 [1], first compound 0.0195 µg/mL, partner 5 µg/mL | 0.649
S. aureus Newman [2], first compound 0.0375 µg/mL, partner 1.25 µg/mL | 0.601
S. aureus Newman [2], first compound 0.0375 µg/mL, partner 2.5 µg/mL | 0.574
S. aureus Newman [2], first compound 0.0375 µg/mL, partner 5 µg/mL | 0.38
S. aureus Newman [2], first compound 0.075 µg/mL, partner 1.25 µg/mL | 0.578
S. aureus Newman [2], first compound 0.075 µg/mL, partner 2.5 µg/mL | 0.533
S. aureus Newman [2], first compound 0.075 µg/mL, partner 5 µg/mL | 0.26
S. aureus Newman [2], first compound 0.15 µg/mL, partner 1.25 µg/mL | 0.0395
S. aureus Newman [2], first compound 0.15 µg/mL, partner 2.5 µg/mL | 0.0384
S. aureus Newman [2], first compound 0.15 µg/mL, partner 5 µg/mL | 0.0694
S. pneumoniae D39V [3], first compound 0.125 µg/mL, partner 0.325 µg/mL | 0.989
S. pneumoniae D39V [3], first compound 0.125 µg/mL, partner 0.65 µg/mL | 0.966
S. pneumoniae D39V [3], first compound 0.125 µg/mL, partner 1.3 µg/mL | 0.755
S. pneumoniae D39V [3], first compound 0.25 µg/mL, partner 0.325 µg/mL | 0.924
S. pneumoniae D39V [3], first compound 0.25 µg/mL, partner 0.65 µg/mL | 0.92

Details | fitness
S. pneumoniae D39V [3], first compound 0.25 µg/mL, partner 1.3 µg/mL, one replicate | 0.54

Details | Bliss interaction score
B. subtilis 168 [4] | 0.104
S. aureus DSM 20231 | 0.0671
S. aureus Newman [5] | -0.0511
S. pneumoniae D39V [6] | 0.0709

O=C(O)c1cn(C2CC2)c2cc(N3CCNCC3)c(F)cc2c1=O [Ciprofloxacin] + C[n+]1ccc(-c2cc[n+](C)cc2)cc1 [Paraquat]
Details | fitness
B. subtilis 168 [1], first compound 0.0098 µg/mL, partner 1.25 µg/mL | 0.895
B. subtilis 168 [1], first compound 0.0098 µg/mL, partner 2.5 µg/mL | 0.922
B. subtilis 168 [1], first compound 0.0098 µg/mL, partner 5 µg/mL | 0.788
B. subtilis 168 [1], first compound 0.0195 µg/mL, partner 1.25 µg/mL | 0.753
B. subtilis 168 [1], first compound 0.0195 µg/mL, partner 2.5 µg/mL | 0.657
B. subtilis 168 [1], first compound 0.0195 µg/mL, partner 5 µg/mL | 0.687
B. subtilis 168 [1], first compound 0.039 µg/mL, partner 1.25 µg/mL | 0.171
B. subtilis 168 [1], first compound 0.039 µg/mL, partner 2.5 µg/mL | 0.171
B. subtilis 168 [1], first compound 0.039 µg/mL, partner 5 µg/mL | 0.234
S. aureus Newman [2], first compound 0.0375 µg/mL, partner 1.25 µg/mL | 0.662
S. aureus Newman [2], first compound 0.0375 µg/mL, partner 2.5 µg/mL | 0.639
S. aureus Newman [2], first compound 0.0375 µg/mL, partner 5 µg/mL | 0.642
S. aureus Newman [2], first compound 0.075 µg/mL, partner 1.25 µg/mL | 0.674
S. aureus Newman [2], first compound 0.075 µg/mL, partner 2.5 µg/mL | 0.635
S. aureus Newman [2], first compound 0.075 µg/mL, partner 5 µg/mL | 0.663
S. aureus Newman [2], first compound 0.15 µg/mL, partner 1.25 µg/mL | 0.033
S. aureus Newman [2], first compound 0.15 µg/mL, partner 2.5 µg/mL | 0.0399
S. aureus Newman [2], first compound 0.15 µg/mL, partner 5 µg/mL | 0.0549
S. pneumoniae D39V [3], first compound 0.125 µg/mL, partner 1.5 µg/mL | 0.983
S. pneumoniae D39V [3], first compound 0.125 µg/mL, partner 3 µg/mL | 0.974
S. pneumoniae D39V [3], first compound 0.125 µg/mL, partner 6 µg/mL | 0.97
S. pneumoniae D39V [3], first compound 0.25 µg/mL, partner 1.5 µg/mL | 0.942
S. pneumoniae D39V [3], first compound 0.25 µg/mL, partner 3 µg/mL | 0.913
S. pneumoniae D39V [3], first compound 0.25 µg/mL, partner 6 µg/mL | 0.902
S. pneumoniae D39V [3], first compound 0.5 µg/mL, partner 1.5 µg/mL | 0.877
S. pneumoniae D39V [3], first compound 0.5 µg/mL, partner 3 µg/mL | 0.875

Details | Bliss interaction score
B. subtilis 168 [4] | -0.0477
S. aureus DSM 20231 | -0.0499
S. aureus Newman [5] | -0.0507
S. pneumoniae D39V [6] | 0.0853

O=C(O)c1cn(C2CC2)c2cc(N3CCNCC3)c(F)cc2c1=O [Ciprofloxacin] + O=C(O[C@@H]1Cc2c(O)cc(O)cc2O[C@@H]1c1cc(O)c(O)c(O)c1)c1cc(O)c(O)c(O)c1 [EGCG]
fitness
Details | partner 6.25 µg/mL | partner 12.5 µg/mL | partner 25 µg/mL | partner 50 µg/mL
B. subtilis 168 [1], first compound 0.0098 µg/mL | 0.878 | – | – | –
B. subtilis 168 [1], first compound 0.0195 µg/mL | 0.741 | 0.54 | 0.375 | –
B. subtilis 168 [1], first compound 0.039 µg/mL | – | 0.35 | 0.295 | –
S. aureus Newman [2], first compound 0.0375 µg/mL | – | 0.666 | 0.557 | 0.544
S. aureus Newman [2], first compound 0.075 µg/mL | – | 0.55 | 0.534 | 0.609
S. aureus Newman [2], first compound 0.15 µg/mL | – | 0.0805 | 0.0356 | 0.053
S. pneumoniae D39V [3], first compound 0.125 µg/mL | – | 0.931 | 0.907 | 0.971
S. pneumoniae D39V [3], first compound 0.25 µg/mL | – | 0.796 | 0.889 | 0.69

Details | Bliss interaction score
B. subtilis 168 [4] | 0.149
S. aureus DSM 20231 | 0.0949
S. aureus Newman [5] | -0.0544
S. pneumoniae D39V [6] | -0.0717

O=C(O)c1cn(C2CC2)c2cc(N3CCNCC3)c(F)cc2c1=O [Ciprofloxacin] + COc1cccc2c1C(=O)c1c(O)c3c(c(O)c1C2=O)C[C@@](O)(C(=O)CO)C[C@@H]3O[C@H]1C[C@H](N)[C@H](O)[C@H](C)O1 [Doxorubicin]
Details | fitness
B. subtilis 168 [1], first compound 0.0098 µg/mL, partner 0.625 µg/mL | 0.908
B. subtilis 168 [1], first compound 0.0098 µg/mL, partner 1.25 µg/mL | 0.872
B. subtilis 168 [1], first compound 0.0195 µg/mL, partner 0.625 µg/mL | 0.702
B. subtilis 168 [1], first compound 0.0195 µg/mL, partner 1.25 µg/mL | 0.628
B. subtilis 168 [1], first compound 0.039 µg/mL, partner 0.625 µg/mL | 0.186
B. subtilis 168 [1], first compound 0.039 µg/mL, partner 1.25 µg/mL | 0.131
B. subtilis 168 [1], first compound 0.039 µg/mL, partner 2.5 µg/mL | 0.037
S. aureus Newman [2], first compound 0.0375 µg/mL, partner 0.625 µg/mL | 0.634
S. aureus Newman [2], first compound 0.0375 µg/mL, partner 1.25 µg/mL | 0.667
S. aureus Newman [2], first compound 0.0375 µg/mL, partner 2.5 µg/mL | 0.658
S. aureus Newman [2], first compound 0.075 µg/mL, partner 0.625 µg/mL | 0.689
S. aureus Newman [2], first compound 0.075 µg/mL, partner 1.25 µg/mL | 0.698
S. aureus Newman [2], first compound 0.075 µg/mL, partner 2.5 µg/mL | 0.642
S. aureus Newman [2], first compound 0.15 µg/mL, partner 1.25 µg/mL | 0.203
S. aureus Newman [2], first compound 0.15 µg/mL, partner 2.5 µg/mL | 0.15
S. pneumoniae D39V [3], first compound 0.125 µg/mL, partner 0.25 µg/mL | 0.899
S. pneumoniae D39V [3], first compound 0.125 µg/mL, partner 0.5 µg/mL | 0.914
S. pneumoniae D39V [3], first compound 0.125 µg/mL, partner 1 µg/mL | 0.821
S. pneumoniae D39V [3], first compound 0.25 µg/mL, partner 0.25 µg/mL | 0.745
S. pneumoniae D39V [3], first compound 0.25 µg/mL, partner 0.5 µg/mL | 0.774
S. pneumoniae D39V [3], first compound 0.25 µg/mL, partner 1 µg/mL | 0.694

Details | Bliss interaction score
B. subtilis 168 [4] | -0.0827
S. aureus DSM 20231 | 0.154
S. aureus Newman [5] | 0.193
S. pneumoniae D39V [6] | -0.0454
